{
  "source": "patent US6949553B2",
  "about": "“Aliphatic compounds, their synthesis method, and utilization of the same” (Maruha Corporation, priority 2001, dated 2005)",
  "key": {"platelets [1]": {"tested_on": "platelets", "experiment": "Collagen-induced in vitro platelet aggregation (rabbit PRP, transmittance)", "type": "cell-based", "conditions": "Oryctolagus cuniculus, Platelet, read-out: 50% Inhibition Point for Platelet Aggregation, IC50", "experimental": "Collagen-induced in vitro Platelet Aggregation\nIt was studied whether the compounds of the present invention would inhibit platelet aggregation induced by collagen.\nThese compounds were each diluted with physiological saline to end concentrations of 1×10^−7M, 3×10^−7M, 1×10^−6M, 3×10^−6M, 1×10^−5M, 3×10^−5M and 1×10^−4M.\nIndomethacin was used as a positive control. Indomethacin was dissolved in methanol, and then diluted with physiological saline to end concentrations of 1×10^−6M, 3×10^−6M and 1×10^−5M.\nPhysiological saline was used as a negative control.\nThe tube was centrifuged at 900 rpm for 10 minutes at room temperature to separate the supernatant (PRP, platelet rich plasma fraction). The residue was further centrifuged for 15 minutes at 2,500 rpm to obtain the supernatant (PPP, platelet poor plasma fraction).\nPPP (platelet poor plasma fraction) was placed in a cuvette, and the cuvette was mounted in a 37° C. incubator for PPP of an aggregometer (Hematracer 240 12ch, manufactured by MCM). Then, 200 μl of PRP (platelet rich plasma fraction) was added into a cuvette, and the cuvette was mounted in a reactor for PRP. With stirring by a magnetic stirrer, the transmittance of PPP was corrected to T650 nm=100%, and the transmittance of PRP was corrected to T650 nm=0%, by automatic adjustment for 30 seconds.\nThe study substance (20 μl) at a predetermined concentration was added into the cuvette and, 30 seconds later, 20 μl (end concentration 0.2 μg/ml) of collagen (produced by MCM) was added. Subsequent changes in the transmittance were recorded for 5 minutes. When the platelets are aggregated, the transmittance increases. When aggregation peaked, the transmittance T at maximum aggregation was compared with the transmittance T0 of the negative control, and the aggregation inhibition rate was expressed as percentage using the following equation: Aggregation inhibition rate=(1−T/T0)×100\nFrom an aggregation inhibition curve obtained, a regression equation was derived by approximation of the linear type."}, "platelets [2]": {"tested_on": "platelets", "experiment": "In vitro platelet aggregation by various inducers, guinea pig platelets", "type": "cell-based", "conditions": "Cavia porcellus", "source_text": "Next, the suppression of platelet aggregation by the compounds of the present invention was studied in the same manner as described above with the use of not only collagen, but also arachidonic acid, ADP, thrombin, serotonin, epinephrine and U46619 (pseudo-thromboxane A2 substance) as inducers.\nAs platelets, platelets prepared from rats and guinea pigs as well as rabbits were also used.\nCollagen and ADP were purchased from MCM, and used in accordance with the method of preparation described in the manuals attached to the purchased products. Serotonin, epinephrine and thrombin were purchased from Sigma, and used as solutions in physiological saline for injection (Otsuka Pharmaceutical Factory). Arachidonic acid was purchased from Cayman, and dispersed in physiological saline for injection (Otsuka Pharmaceutical Factory) with the use of an immersion type ultrasonic oscillator (US150, NIPPON SEIKI, tip end diameter ca. 3.5 mm). U46619 (pseudo-thromboxane substance) was purchased from FUNAKOSHI, and dissolved in physiological saline for injection (Otsuka Pharmaceutical Factory) when used.\nCollagen (0.1 to 1 μg/ml), arachidonic acid (1 mM), ADP (1 μM), thrombin (1 U/ml), serotonin (100 μM), epinephrine (100 to 200 μM), and U46619 (3 μM) were used.\nIndomethacin was used as a positive control for measuring the suppression of platelet aggregation induced by collagen."}, "platelets [3]": {"tested_on": "platelets", "experiment": "Ex vivo platelet aggregation after intravenous administration", "type": "in vivo, rat", "experimental": "The blood was withdrawn at three points in time, 10 minutes, 30 minutes and 1 hour after administration. Platelets were prepared from the blood samples taken, and they were used to study the aggregation rates when platelet aggregation was induced by 0.3 to 6 μg/ml of collagen. In a control group, the aggregation rates after administration of a solvent (physiological saline) were measured.\nIt was studied whether the compound of the present invention would suppress ex vivo platelet aggregation dose-dependently.\nThe blood was withdrawn 60 minutes after administration, and platelets were prepared from the blood. Platelet aggregation was induced by 4 to 7 μg/ml of collagen using the platelets.\nThe blood was withdrawn 1 hour after intravenous administration, and platelets were prepared from the blood. Platelet aggregation was induced by 1 to 6 μg/ml of collagen using the platelets."}, "[4]": {"tested_on": "rat lauric acid-induced leg necrosis", "experiment": "Rat lauric acid-induced peripheral circulatory disorder model (leg necrosis score)", "type": "in vivo", "conditions": "for leg necrosis score (in words): iv once daily 14 days, 10, 30 or 100 μg/kg; for alleviation of the disorder (in words): prior administration", "experimental": "A rat lauric acid-induced peripheral circulatory disorder model, which is widely used as a peripheral circulatory disorder model, was used to investigate the effect of the compounds of the present invention on an in vivo pathophysiological model of circulatory disorder.\nLauric acid (1.5 mg/animal) was administered into the rat femoral artery to induce leg necrosis.\nA solvent (physiological saline) was administered as a control.\nThe progress of foot/leg lesions was observed 3, 7, 10 and 14 days after lauric acid administration, and evaluated by the following leg necrosis score. The score was given to each of the digits, and the sum of the scores of the respective digits was taken as a lesion index. If the disorder extended to the plantar portion, 5 points were further added.\nScore 1: Blackening is limited to the tiptoe.\nScore 2: Blackening extends to the digital portion.\nScore 3: Necrosis of the digit.\nScore 4: Loss of the digit.\nA solvent (physiological saline) was similarly administered as a control.\nThe progress of foot/leg lesions was observed 3, 7, 10 and 14 days after lauric acid administration, and evaluated by the above leg necrosis score.\nA test was conducted in the same manner as in (2) above."}, "[5]": {"tested_on": "rat middle cerebral artery obstruction", "experiment": "Photosensitization-induced rat middle cerebral artery obstruction model", "type": "in vivo", "conditions": "1 mg/kg intravenous after laser irradiation, evaluated 24 hours after", "experimental": "A photosensitization-induced rat middle cerebral artery obstruction model, widely used as a cerebral infarction acute phase/chronic phase model, was used to investigate the effect of the compounds of the present invention on an in vivo circulatory disorder pathophysiological model.\nAfter rats were intravenously injected with a rose bengal dye (20 mg/kg), the middle cerebral artery was irradiated with green laser light (wavelength 540 nm) for 10 minutes to induce arterial infarction due to active oxygen species. After completion of irradiation with laser light, Compound 2 was intravenously administered.\nA solvent (physiological saline) was intravenously administered as a control.\nThe progress of cerebral infarction was observed 24 hours after laser light irradiation. A transverse section (1 mm in thickness) of the brain exenterated was prepared, and soaked in triphenyltetrazolium to stain living tissue red. An infarct was white, and was clearly distinguished from the living tissue. Thus, the area of the infarct was measured, and the infarct rate (the proportion of the area of the infarct to the transverse section of the brain) was calculated for use in evaluation."}},
  "note": "Several values for one entry are separate records, joined by “and”; a condition that tells them apart may be missing. Equal entries are not always repeated.",
  "data": [
    {"smiles": "CC/C=C\\C/C=C\\C/C=C\\C/C=C\\C/C=C\\C/C=C\\CCC(=O)NCCC1CCCN1C", "note": "(racemic) [Compound 2, (4Z,7Z,10Z,13Z,16Z,19Z)-N-[2-(1-methylpyrrolidin-2-yl)ethyl]docosahexaenoamide]", "values": [
      {"measurement": "IC50", "setting": "platelets [1]", "value": 1.5, "unit": "µM"},
      {"measurement": "IC50", "setting": "platelets [2]; read-out: 50% aggregation inhibition point, collagen-induced aggregation, guinea pig platelets", "value": "~9", "unit": "µM"},
      {"measurement": "IC50", "setting": "platelets [2]; read-out: 50% inhibition point, IC50, for in vitro platelet aggregation, inducer ADP (1 μM), guinea pig platelets", "value": "65 ± 19", "unit": "µM"},
      {"measurement": "IC50", "setting": "platelets [2]; read-out: 50% inhibition point, IC50, for in vitro platelet aggregation, inducer collagen (0.1 to 1 μg/ml), guinea pig platelets", "value": "9 ± 6", "unit": "µM"},
      {"measurement": "IC50", "setting": "platelets [2]; read-out: 50% inhibition point, IC50, for in vitro platelet aggregation, inducer thrombin (1 U/ml), guinea pig platelets", "value": "> 100", "unit": "µM"},
      {"measurement": "ex vivo IC50 blood concentration as fraction of in vitro IC50", "setting": "platelets [3]; 26 nM versus 2.1±0.8 μM in vitro", "value": "about 1/80"},
      {"measurement": "ex vivo platelet aggregation (in words)", "setting": "platelets [3]; 0.0001 mg/kg rat caudal vein, 60 minutes, collagen 4 μg/ml", "value": "suppressed compared with the solvent-treated group, although the suppressive action was weak"},
      {"measurement": "ex vivo platelet aggregation, onset of efficacy (in words)", "setting": "platelets [3]; 10 mg/kg caudal vein, male SD rats, blood 10 minutes, 30 minutes and 1 hour after administration, collagen 0.3 to 6 μg/ml", "value": "platelet aggregation was suppressed in comparison with the solvent group"},
      {"measurement": "ex vivo platelet aggregation (in words)", "setting": "platelets [3]; 1, 0.1, 0.01 or 0.001 mg/kg rat caudal vein, blood 60 minutes after administration, collagen 4 to 7 μg/ml", "value": "platelet aggregation was suppressed in comparison with the solvent-treated group"},
      {"measurement": "ex vivo platelet aggregation, dose-dependency (in words)", "setting": "platelets [3]; FIG. 3, 0.0001 to 1 mg/kg rat caudal vein, 60 minutes", "value": "suppressing platelet aggregation ex vivo dose-dependently"},
      {"measurement": "estimated blood concentration at the ex vivo IC50 dose", "setting": "platelets [3]; Platelet, iv, 630 ng/kg, rat blood estimated at about 60 ml/kg, read-out: presumed blood concentration at the ex vivo IC50 dose", "value": 0.026, "unit": "µM"},
      {"measurement": "IC50 for suppression of ex vivo platelet aggregation relative to conventional GPIIb/IIIa receptor antagonists", "setting": "platelets [3]; rat, intravenous", "value": "about 1,000 times"},
      {"measurement": "50% suppression point, IC50, ex vivo platelet aggregation", "setting": "platelets [3]; rat, intravenous, 60 minutes after administration, collagen 4 μg/ml", "value": "630 ± 36 ng/kg and 630 ng/kg"},
      {"measurement": "leg necrosis score (in words)", "setting": "[4]; administration after induction: first dose 6 hours after lauric acid", "value": "improve the leg necrosis score dose-dependently"},
      {"measurement": "leg necrosis score (in words)", "setting": "[4]; administration started 1 hour before lauric acid", "value": "improve the leg necrosis score dose-dependently"},
      {"measurement": "alleviation of the disorder (in words)", "setting": "[4]; dose of 10 μg/kg", "value": "tended to alleviate the disorder"},
      {"measurement": "alleviation of the disorder (in words)", "setting": "[4]; doses of 30 and 100 μg/kg", "value": "alleviated the disorder significantly"},
      {"measurement": "cerebral infarction, infarct rate (in words)", "setting": "[5]", "value": "ameliorate cerebral infarction"}
    ]}
  ]
}
